# Assay results: US20230322846A9, “NEUROACTIVE STEROIDS AND THEIR METHODS OF USE” (SAGE THERAPEUTICS, INC., priority 2018, published 2023)
# pIC50: −log10 of the molar value.
# Target: [35S]-TBPS binding, rat brain cortical membranes
# Experiment: Steroid inhibition of [35S]-TBPS binding
# Details: 3 nM [35S]-TBPS, in the presence of 5 mM GABA
# How it was run: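 Rat cortical P2 membranes incubated 90 min at room temperature with 3 nM [35S]-TBPS, […] and test compound (0.5% DMSO final) in NaCl/Na–K phosphate pH 7.4; nonspecific binding with […]. Filter-bound radioactivity counted; IC50 and Imax from nonlinear fits, mean ± SEM.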
row,SMILES,pIC50
1,"CCC[C@@]1(O)CC[C@H]2[C@H](CC[C@@H]3[C@@H]2CC[C@]2(C)[C@@H]([C@@H](C)Cn4nnc(C)n4)C(=O)C[C@@H]32)C1 [Example 364, (3R,5R,8R,9R,10S,13S,14S,17R)-3-hydroxy-13-methyl-17-((R)-1-(5-methyl-2H-tetrazol-2-yl)propan-2-yl)-3-propyltetradecahydro-1H-cyclopenta[a]phenanthren-16(2H)-one]",6.00 to 7.00
2,"CCC[C@@]1(O)CC[C@H]2[C@H](CC[C@@H]3[C@@H]2CC[C@]2(C)[C@@H]([C@H](C)Cc4ccc(C#N)nc4)CC[C@@H]32)C1 [Example 400, 5-((R)-2-((3R,5R,8R,9R,10S,13R,14S,17R)-3-hydroxy-13-methyl-3-propylhexadecahydro-1H-cyclopenta[a]phenanthren-17-yl)propyl)picolinonitrile]",> 7.00
3,"CCOC[C@@]1(O)CC[C@H]2[C@H](CC[C@@H]3[C@@H]2CC[C@]2(C)[C@@H]([C@@H](C)Cc4cccc(C#N)c4)CC[C@@H]32)C1 [Example 402, 3-((S)-2-((3R,5R,8R,9R,10S,13R,14S,17R)-3-(ethoxymethyl)-3-hydroxy-13-methylhexadecahydro-1H-cyclopenta[a]phenanthren-17-yl)propyl)benzonitrile]",> 7.00
4,"CCOC[C@@]1(O)CC[C@H]2[C@H](CC[C@@H]3[C@@H]2CC[C@]2(C)[C@@H]([C@H](C)Cc4cccc(C#N)c4)CC[C@@H]32)C1 [Example 403, 3-((R)-2-((3R,5R,8R,9R,10S,13R,14S,17R)-3-(ethoxymethyl)-3-hydroxy-13-methylhexadecahydro-1H-cyclopenta[a]phenanthren-17-yl)propyl)benzonitrile]",6.00 to 7.00
5,"COC[C@@]1(O)CC[C@H]2[C@H](CC[C@@H]3[C@@H]2CC[C@]2(C)[C@@H]([C@@H](C)Cc4ccc(C#N)nc4)CC[C@@H]32)C1 [Example 404, 5-((S)-2-((3R,5R,8R,9R,10S,13R,14S,17R)-3-hydroxy-3-(methoxymethyl)-13-methylhexadecahydro-1H-cyclopenta[a]phenanthren-17-yl)propyl)picolinonitrile]",> 7.00
6,CCC[C@@]1(O)CC[C@H]2[C@H](CC[C@@H]3[C@@H]2CC[C@]2(C)[C@@H]([C@@H](C)Cc4ccc(C(F)(F)F)nc4)CC[C@@H]32)C1 [Example 410],6.00 to 7.00
7,CCC[C@@]1(O)CC[C@H]2[C@H](CC[C@@H]3[C@@H]2CC[C@]2(C)[C@@H]([C@H](C)Cc4ccc(C(F)(F)F)nc4)CC[C@@H]32)C1 [Example 411],> 7.00
8,CCOC[C@@]1(O)CC[C@H]2[C@H](CC[C@@H]3[C@@H]2CC[C@]2(C)[C@@H]([C@H](C)Cc4cccc(C#N)n4)CC[C@@H]32)C1 [Example 412],6.00 to 7.00
9,CCOC[C@@]1(O)CC[C@H]2[C@H](CC[C@@H]3[C@@H]2CC[C@]2(C)[C@@H]([C@@H](C)Cc4ccc(C)nc4C#N)CC[C@@H]32)C1 [Example 414],> 7.00
10,CCOC[C@@]1(O)CC[C@H]2[C@H](CC[C@@H]3[C@@H]2CC[C@]2(C)[C@@H]([C@H](C)Cc4ccc(C)nc4C#N)CC[C@@H]32)C1 [Example 415],> 7.00
11,CCC[C@@]1(O)CC[C@H]2[C@H](CC[C@@H]3[C@@H]2CC[C@]2(C)[C@@H]([C@H](C)Cc4cnc(C)cn4)CC[C@@H]32)C1 [Example 418],5.00 to 6.00
12,COC[C@@]1(O)CC[C@H]2[C@H](CC[C@@H]3[C@@H]2CC[C@]2(C)[C@@H]([C@H](C)Cc4ccc(C(F)(F)F)nc4)CC[C@@H]32)C1 [Example 421],6.00 to 7.00
13,COC[C@@]1(O)CC[C@H]2[C@H](CC[C@@H]3[C@@H]2CC[C@]2(C)[C@@H]([C@@H](C)Cc4cnc(C)cn4)CC[C@@H]32)C1 [Example 422],> 7.00
14,COC[C@@]1(O)CC[C@H]2[C@H](CC[C@@H]3[C@@H]2CC[C@]2(C)[C@@H]([C@H](C)Cc4cnc(C)cn4)CC[C@@H]32)C1 [Example 423],6.00 to 7.00
15,COC[C@@]1(O)CC[C@H]2[C@H](CC[C@@H]3[C@@H]2CC[C@]2(C)[C@@H]([C@@H](C)Cc4nc(C)ccc4Cl)CC[C@@H]32)C1 [Example 424],> 7.00
16,COC[C@@]1(O)CC[C@H]2[C@H](CC[C@@H]3[C@@H]2CC[C@]2(C)[C@@H]([C@H](C)Cc4nc(C)ccc4Cl)CC[C@@H]32)C1 [Example 425],5.00 to 6.00
17,C[C@H](Cc1ccc(C(F)(F)F)nc1)[C@H]1CC[C@H]2[C@@H]3CC[C@@H]4C[C@](C)(O)CC[C@]4(C)[C@H]3CC[C@]12C [Example 426],6.00 to 7.00
18,C[C@@H](Cc1ccc(C(F)(F)F)nc1)[C@H]1CC[C@H]2[C@@H]3CC[C@@H]4C[C@](C)(O)CC[C@]4(C)[C@H]3CC[C@]12C [Example 427],> 7.00

row,SMILES,pIC50
1,C[C@@H](Cc1ncc(CO)s1)[C@H]1CC[C@H]2[C@@H]3CC[C@@H]4C[C@](C)(O)CC[C@@H]4[C@H]3CC[C@]12C [Example 428],> 7.00
2,C[C@H](Cc1ncc(CO)s1)[C@H]1CC[C@H]2[C@@H]3CC[C@@H]4C[C@](C)(O)CC[C@@H]4[C@H]3CC[C@]12C [Example 429],> 7.00
3,Cc1cnc(C[C@@H](C)[C@H]2CC[C@H]3[C@@H]4CC[C@@H]5C[C@](C)(O)CC[C@@H]5[C@H]4CC[C@]23C)s1 [Example 431],6.00 to 7.00
4,COc1cncc(C[C@H](C)[C@H]2CC[C@H]3[C@@H]4CC[C@@H]5C[C@](C)(O)CC[C@@H]5[C@H]4CC[C@]23C)c1 [Example 432],> 7.00
5,COc1cncc(C[C@@H](C)[C@H]2CC[C@H]3[C@@H]4CC[C@@H]5C[C@](C)(O)CC[C@@H]5[C@H]4CC[C@]23C)c1 [Example 433],> 7.00
6,Cc1cncc(C[C@@H](C)[C@H]2CC[C@H]3[C@@H]4CC[C@@H]5C[C@](C)(O)CC[C@@H]5[C@H]4CC[C@]23C)c1 [Example 434],6.00 to 7.00
7,C[C@@H](Cc1nccc(C#N)n1)[C@H]1CC[C@H]2[C@@H]3CC[C@@H]4C[C@](C)(O)CC[C@@H]4[C@H]3CC[C@]12C [Example 435],> 7.00
8,Cc1cnc(C[C@H](C)[C@H]2CC[C@H]3[C@@H]4CC[C@@H]5C[C@](C)(O)CC[C@@H]5[C@H]4CC[C@]23C)nc1 [Example 437],> 7.00
9,Cc1cnc(C[C@@H](C)[C@H]2CC[C@H]3[C@@H]4CC[C@@H]5C[C@](C)(O)CC[C@@H]5[C@H]4CC[C@]23C)cn1 [Example 440],> 7.00
10,Cc1cncc(C[C@H](C)[C@H]2CC[C@H]3[C@@H]4CC[C@@H]5C[C@](C)(O)CC[C@@H]5[C@H]4CC[C@]23C)n1 [Example 441],> 7.00
11,Cc1cncc(C[C@@H](C)[C@H]2CC[C@H]3[C@@H]4CC[C@@H]5C[C@](C)(O)CC[C@@H]5[C@H]4CC[C@]23C)n1 [Example 442],6.00 to 7.00
12,C[C@H](Cc1ccc(C(F)(F)F)nc1)[C@H]1CC[C@H]2[C@@H]3CC[C@@H]4C[C@](C)(O)CC[C@@H]4[C@H]3CC[C@]12C [Example 444],6.00 to 7.00
13,C[C@@H](Cc1nc(C(F)(F)F)cs1)[C@H]1CC[C@H]2[C@@H]3CC[C@@H]4C[C@](C)(O)CC[C@@H]4[C@H]3CC[C@]12C [Example 449],> 7.00
14,C[C@H](Cc1nc(C(F)(F)F)cs1)[C@H]1CC[C@H]2[C@@H]3CC[C@@H]4C[C@](C)(O)CC[C@@H]4[C@H]3CC[C@]12C [Example 450],6.00 to 7.00
15,Cc1cc(C[C@@H](C)[C@H]2CC[C@H]3[C@@H]4CC[C@@H]5C[C@](C)(O)CC[C@@H]5[C@H]4CC[C@]23C)sn1 [Example 451],6.00 to 7.00
16,"CCOC[C@@]1(O)CC[C@H]2[C@H](CC[C@@H]3[C@@H]2CC[C@]2(C)[C@@H]([C@H](Nc4ccc(C#N)cc4C)C(F)(F)F)CC[C@@H]32)C1 [Example 487, 4-(((S)-1-((3R,5R,8R,9R,10S,13S,14S,17S)-3-(ethoxymethyl)-3-hydroxy-13-methylhexadecahydro-1H-cyclopenta[a]phenanthren-17-yl)-2,2,2-trifluoroethyl)amino)-3-methylbenzonitrile]",6.00 to 7.00
17,"CCOC[C@@]1(O)CC[C@H]2[C@H](CC[C@@H]3[C@@H]2CC[C@]2(C)[C@@H]([C@@H](Nc4ccc(C#N)cc4C)C(F)(F)F)CC[C@@H]32)C1 [Example 488, 4-(((R)-1-((3R,5R,8R,9R,10S,13S,14S,17S)-3-(ethoxymethyl)-3-hydroxy-13-methylhexadecahydro-1H-cyclopenta[a]phenanthren-17-yl)-2,2,2-trifluoroethyl)amino)-3-methylbenzonitrile]",5.00 to 6.00
18,"Cc1cc(C#N)ccc1N[C@@H]([C@H]1CC[C@H]2[C@@H]3CC[C@@H]4C[C@](C)(O)CC[C@@H]4[C@H]3CC[C@]12C)C(F)(F)F [Example 489, 3-methyl-4-(((S)-2,2,2-trifluoro-1-((3R,5R,8R,9R,10S,13S,14S,17S)-3-hydroxy-3,13-dimethylhexadecahydro-1H-cyclopenta[a]phenanthren-17-yl)ethyl)amino)benzonitrile]",5.00 to 6.00
